These results are taken from US20230416258A1, “BENZ[…], AND PREPARATION METHOD THEREFOR AND USE THEREOF” (CHINA PHARMACEUTICAL UNIVERSITY, priority 2020, published 2023).

In series [1] the test system is KM mice. In words: Test for drug-induced disappearance of righting reflex in mice. The format is in vivo. The conditions noted are these: single rapid bolus via tail vein. A digest of the protocol:
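Female KM mice (18–25 g), randomly grouped, given a single rapid bolus via tail vein. Latency (administration to loss of righting reflex) and duration (loss to recovery) recorded.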

Series [2] has as its system SD rats. Description: Test for drug-induced disappearance of righting reflex in rats. It is filed as in vivo. The conditions noted are these: single rapid bolus via tail vein. The source says: In anesthetic drug experiments, latency generally refers to the time from the start of administration to the loss of consciousness of the subject. The shorter latency is preferred, indicating a rapid onset of action after administration. The duration of anesthesia generally refers to the duration of time from the loss of consciousness to the restoration of consciousness of the subject. The duration of the drug will vary from animal model to animal species. Too long anesthesia may produce adverse cardiovascular and respiratory responses, such as adverse neurological effects to the subject, including sleepiness and dizziness; meanwhile, too short duration of anesthesia may affect the anesthesia effect, causing problems such as increase of anesthesia dosage during the operation.
SD rats (male, 200-280 g) were randomly grouped and subjected to a single administration by rapid bolus via the tail vein. The latency and duration of righting reflex in the rats were recorded.

Series [3] deals with SD rats. In words: Induction of anesthesia in rats by continuous infusion of drug for 20 min. The format is in vivo. As to conditions: initial dose 20 mg/kg bolus, maintenance dose 0.2 (mg/kg)/min for 20 min, after infusion completed. On the procedure: SD rats (male, 200-280 g) were randomly grouped and subjected to administration of an initial dose by rapid bolus via the tail vein, followed by a continuous infusion with a maintenance dose for 20 min.
After the infusion was completed, the duration of the righting reflex and the time from wake-up to recovery in rats were recorded.

The subject of series [4] is GABA-activated Cl− current (GABAA receptor) in HEK 293T cells. Description: Effect of drugs on GABA-activated current in cells by cell patch clamp. The format is cell-based. As to conditions: for EC50: read-out: Positive enhancement EC50 (μM) for 2 μM GABA-induced current, −60 mV; for Enhancement percentage Emax for 2 μM GABA current (within 3-30 μM): −60 mV, corresponding concentration 20 μM. Here is the method: Test compounds were dissolved at various concentrations in an extracellular buffer (140 mM NaCl, 4.7 mM KCl, 10 mM HEPES, 2 mM CaCl2), 10 mM glucose, 1 mM MgCl2, pH 7.4). HEK 293T cells were seeded on glass coverslips and cultured in DMEM media at 37° C. with 5% CO2 for 24 h. GABA Cl^− current was subjected to whole cell recording using an HEKA EPC 10USB patch clamp amplifier. 2 μM GABA was used for exciting Cl^− current, with the membrane potential clamped at −60 mV. The cells were treated with the test compound and 2 μM GABA simultaneously, and the induction effect on and Emax of Cl^− current in the same cell were recorded.
Maximum enhancement percentage Emax for 2 μM GABA current and corresponding concentration (μM): 100% for normal humans. The greater the percentage, the lower the corresponding concentration, and the greater the depth of anesthesia.
On the technique in general: Patch clamp records ionic current or voltage across a cell membrane.

The subject of series [5] is hCMEC/D3 cells. In words: Rate of drug passing through in vitro blood-brain barrier (Transwell). It is filed as in vitro ADME. The conditions noted are these: hCMEC/D3 monolayer, compound 0.1 mg/mL. Here is the method:
A Transwell device (pore size: 5.0 μm) was placed in a 24-well cell culture well; then hCMEC/D3 cells at 1×10^5 cells/mL were transferred to the upper microwells of Transwell at 150 μL/well, and cell culture medium was added to the lower microwells. After the bottom was covered by a single layer of the cells, the medium in the wells was replaced with EBM-2 complete medium containing 1% FBS, and the cells were cultured in a CO2 incubator for 10 days until a fully dense single layer of the cells was formed. When a fully dense single layer of the cells was formed, the compound at 0.1 mg/mL was added to the lower medium, and after 5 min, the concentration of the compound in the upper medium was measured to calculate the permeability:
Pcompound%=Cupper compound/Clower compound×100%

The nature of series [6]: In vitro plasma half-life of drug. It is filed as in vitro ADME, SD rats. The conditions noted are these: plasma (heparin sodium); SD rat plasma, 37° C. On the procedure: Preparation of plasma: after the SD rats were fasted and kept with water for 12 h, blood was collected through orbital venous plexus. The freshly collected blood was added into a centrifuge tube containing heparin sodium and centrifuged at 5000 rpm for 10 min at 4° C. The supernatant was slowly pipetted and subpackaged. Finally, the collected SD rat plasma was sealed, marked, and stored at −20° C. for later use.
Preparation of target compound sample: the target compound was precisely weighed by an analytical balance and prepared into a stock solution at a concentration of 2 mg/mL (solvent: Vacetone:VTween 80:Vnormal saline=1:1:3) for later use.
Determination of in vitro half-life of target compound sample: 20 μL of test compound stock solution and 80 μL of rat plasma were mixed uniformly. Nine parallel ep tubes were taken, marked as corresponding test tubes of 0 min, 1 min, 2 min, 3 min, 5 min, 10 min, 15 min, 20 min, and 30 min, respectively, and placed in a water bath at 37° C. for incubation for 0 min, 1 min, 2 min, 3 min, 5 min, 10 min, 15 min, 20 min, and 30 min, respectively. 50 μL of mixed solution were taken from the corresponding ep tube at each time point, and […] of acetonitrile was added for precipitating protein. The mixture was vortexed for 10 min using a mixer and centrifuged at 12000 rpm for 15 min. Then, the supernatant was centrifuged at 12000 rpm for 10 min. The optimal detection method for the target compound in the MRM mode was determined using Intellistat software in UPLC-MS/MS, the peak area of the corresponding mass spectrum was integrated, and the plasma half-life of the compound was calculated.

A word on the EC50: it is the concentration needed to bring the measured effect to its halfway point. As usually defined, the half-life is how long it takes for the measured level to halve. A higher half-life goes with slow decline. As for `COC(=O)CC[C@@H]1N=C(c2ccccc2Cl)c2cc(Br)ccc2-n2c(SC(C)=O)nnc21` [Compound 39, methyl (S)-3-(8-bromo-6-(2-chlorophenyl)-1-(acetylthio)-4H-benzo[f][1,2,4]triazolo[4,3-a][1,4]diazepin-4-yl)propionate], in series [1] (60 mg/kg), the Duration turned out to be 9.67 min and the Latency is given as 0.19 min. Also, the Latency in series [2] amounted to 0.38 min. Moreover, in series [3], the Duration of anesthesia is on record as 7.86 min and the “Time from wake-up to recovery” value is 11.2 min. Besides, in series [4], the EC50 worked out at 0.88 µM and the “Enhancement percentage Emax for 2 μM GABA current (within 3-30 μM)” value (“Enhancement percentage Emax” below) is given as 272% (20 μM). Moreover, the “In vitro blood-brain barrier, compound permeability at 5 min” value (“In vitro blood-brain barrier” for short) in series [5] was found to be 82.6%. The same molecule returned a half-life at 0.4 mg/mL in series [6] of 25.8 s.

As for `COC(=O)CC[C@@H]1N=C(c2ccccc2Cl)c2cc(Cl)ccc2-n2c(SCCN)nnc21` [Compound 35, methyl (S)-3-(8-chloro-6-(2-chlorophenyl)-1-((2-aminoethyl)thio)-4H-benzo[f][1,2,4]triazolo[4,3-a][1,4]diazepin-4-yl)propionate], in series [1] (60 mg/kg), the Duration worked out at 40.26 min and the Latency was 0.18 min. For the same molecule, in series [2], the Latency was determined as 0.25 min. In series [3], the Duration of anesthesia is on record as 51.3 min and the “Time from wake-up to recovery” value is listed as 33.8 min. For the same molecule, in series [4], the EC50 amounted to 0.36 µM and the “Enhancement percentage Emax” value is on record as 318% (20 μM). Moreover, the “In vitro blood-brain barrier” value in series [5] is 84.6%. Further, the half-life at 0.4 mg/mL in series [6] is 12.6 s.

In series [1] (30 mg/kg), `COC(=O)CC[C@@H]1N=C(c2ccccc2Cl)c2cc(Cl)ccc2-n2c(SCCO)nnc21` [Compound 32, methyl (S)-3-(8-chloro-6-(2-chlorophenyl)-1-((2-hydroxyethyl)thio)-4H-benzo[f][1,2,4]triazolo[4,3-a][1,4]diazepin-4-yl)propionate] came in with a Duration of 20.73 min and a Latency of 0.73 min. Besides, the half-life at 0.4 mg/mL in series [6] turned out to be 16.2 s.

With `COC(=O)CC[C@@H]1N=C(c2ccccc2F)c2cc(Br)ccc2-n2c(SCCN3CCOCC3)nnc21` [Compound 52, methyl (S)-3-(8-bromo-6-(2-fluorophenyl)-1-((2-morpholinoethyl)thio)-4H-benzo[f][1,2,4]triazolo[4,3-a][1,4]diazepin-4-yl)propionate], in series [1] (30 mg/kg), the Duration was found to be 5.38 min and the Latency turned out to be 1.3 min. In series [1] (60 mg/kg), this molecule returned a Duration of 7.22 min and a Latency of 0.94 min. The molecule further yielded a Latency in series [2] of 0.33 min. Further, in series [3], the Duration of anesthesia is given as 6.25 min and the “Time from wake-up to recovery” value is reported as 16.2 min. In series [4], the EC50 came to 0.47 µM and the “Enhancement percentage Emax” value is 293% (20 μM). The “In vitro blood-brain barrier” value in series [5] is 80.1%. In series [6], this molecule returned a half-life at 0.4 mg/mL of 21.6 s.

In series [1] (60 mg/kg), `COC(=O)CC[C@@H]1N=C(c2ccccc2F)c2cc([N+](=O)[O-])ccc2-n2c(SCCCN(C)C)nnc21` [Compound 59, methyl (S)-3-(8-nitro-1-((3-(dimethylamino)propyl)thio)-6-(2-fluorophenyl)-4H-benzo[f][1,2,4]triazolo[4,3-a][1,4]diazepin-4-yl)propionate] came in with a Duration of 9.62 min and a Latency of 0.37 min. The Latency in series [2] is listed as 0.22 min. For the same molecule, in series [3], the Duration of anesthesia is 4.89 min and the “Time from wake-up to recovery” value was 31.3 min. For the same molecule, in series [4], the EC50 was determined as 0.79 µM and the “Enhancement percentage Emax” value was 252% (20 μM). In series [5], the “In vitro blood-brain barrier” value came out at 75.7%. In series [6], this molecule returned a half-life at 0.4 mg/mL of 15 s.

Take `COC(=O)CC[C@@H]1N=C(c2ccccc2Cl)c2cc([N+](=O)[O-])ccc2-n2c(SCCN3CCOCC3)nnc21` [Compound 83, methyl (S)-3-(8-nitro-6-(2-chlorophenyl)-1-((2-morpholinoethyl)thio)-4H-benzo[f][1,2,4]triazolo[4,3-a][1,4]diazepin-4-yl)propionate]: in series [1] (30 mg/kg), the Duration stood at 7.89 min and the Latency is recorded as 0.28 min. In series [1] (60 mg/kg), the Duration amounted to 14.58 min and the Latency was 0.19 min. The Latency in series [2] was determined as 0.16 min. In addition, in series [3], the Duration of anesthesia worked out at 28.66 min and the “Time from wake-up to recovery” value worked out at 16.3 min. Moreover, in series [4], the EC50 was 0.57 µM and the “Enhancement percentage Emax” value is on record as 287% (20 μM). For the same molecule, the “In vitro blood-brain barrier” value in series [5] came out at 77.3%. In series [6], this molecule registered a half-life at 0.4 mg/mL of 16.8 s.

In series [1] (60 mg/kg), `COC(=O)CC[C@@H]1N=C(c2ccccc2F)c2cc([N+](=O)[O-])ccc2-n2c(SCCN3CCOCC3)nnc21` [Compound 53, methyl (S)-3-(8-nitro-6-(2-fluorophenyl)-1-((2-morpholinoethyl)thio)-4H-benzo[f][1,2,4]triazolo[4,3-a][1,4]diazepin-4-yl)propionate] gave a Duration of 9.98 min and a Latency of 0.42 min. The molecule also registered a Latency in series [2] of 0.18 min. Further, in series [3], the Duration of anesthesia was 4.17 min and the “Time from wake-up to recovery” value is recorded as 13.5 min. Further, in series [4], the EC50 came out at 0.53 µM and the “Enhancement percentage Emax” value is 285% (20 μM). In series [5], the “In vitro blood-brain barrier” value is 69.9%. The half-life at 0.4 mg/mL in series [6] worked out at 19.8 s.

In series [1] (60 mg/kg), `COC(=O)CC[C@@H]1N=C(c2ccccc2Cl)c2cc(Br)ccc2-n2c(SCCCN3CCN(CCO)CC3)nnc21` [Compound 97, methyl (S)-3-(8-bromo-6-(2-chlorophenyl)-1-((3-(4-(2-hydroxyethyl)piperazin-1-yl)propyl)thio)-4H-benzo[f][1,2,4]triazolo[4,3-a][1,4]diazepin-4-yl)propionate] showed a Duration of 17.07 min and a Latency of 0.93 min. Further, in series [2], the Latency is reported as 0.18 min. In series [3], the Duration of anesthesia stood at 6.43 min and the “Time from wake-up to recovery” value was determined as 17.4 min. In addition, in series [4], the EC50 is 0.84 µM and the “Enhancement percentage Emax” value was 238% (20 μM). Moreover, the “In vitro blood-brain barrier” value in series [5] was found to be 84.6%. The half-life at 0.4 mg/mL in series [6] was 36.6 s.

In series [1] (30 mg/kg), `CCCSc1nnc2n1-c1ccc(Br)cc1C(c1ccccc1Cl)=N[C@H]2CCC(=O)OC` [Compound 30, methyl (S)-3-(8-bromo-6-(2-chlorophenyl)-1-(propylthio)-4H-benzo[f][1,2,4]triazolo[4,3-a][1,4]diazepin-4-yl)propionate] returned a Duration of 7.44 min and a Latency of 0.42 min. In series [6], this molecule showed a half-life at 0.4 mg/mL of 27 s.
